The record followed here is ChEMBL document CHEMBL4373714, “Absolute Configuration and Biological Activities of Meroterpenoids from an Endophytic Fungus of Lycium barbarum” (J Nat Prod, 2019).

In brackets after ≈: the same amount, converted by molar mass. Counter-ions that a name gives are not always drawn.

In experiment [1] the test system is MDA-MB-231. In words: Antiproliferative activity against human MDA-MB-231 cells assessed as reduction in cell viability at 10 uM after 24 hrs by CCK8 assay relative to control. The format is functional. The conditions noted are these: MDA-MB-231, 24 h. In general terms: Tetrazolium assays rely on reduction of a dye to a coloured formazan, in cell work by metabolically active cells.

Experiment [2] relates to NCI-H226. In words: Antiproliferative activity against human NCI-H226 cells assessed as reduction in cell viability at 10 uM after 24 hrs by CCK8 assay relative to control. The format is functional. The conditions noted are these: NCI-H226, 24 h.
The test system of the next experiment is Clostridium perfringens. As to the kind of experiment: Antibacterial activity against Clostridium perfringens assessed as inhibition of bacterial growth after 24 hrs by microdilution method. The class given is functional.
A further experiment concerns Pseudomonas viridiflava. As to the kind of experiment: Antibacterial activity against Pseudomonas viridiflava assessed as inhibition of bacterial growth after 24 hrs by microdilution method. The class given is functional.
A further experiment has as its system Bacillus subtilis. As to the kind of experiment: Antibacterial activity against Bacillus subtilis assessed as inhibition of bacterial growth after 24 hrs by microdilution method. The format is functional. On the technique in general: Broth dilution looks for growth in wells or tubes with falling amounts of substance.
The test system of experiment [3] is MDA-MB-231. As to the kind of experiment: Antiproliferative activity against human MDA-MB-231 cells assessed as reduction in cell viability after 24 hrs by CCK8 assay. The format is functional, cell-based. The conditions noted are these: MDA-MB-231, 24 h.
Experiment [4] deals with NCI-H226. In words: Antiproliferative activity against human NCI-H226 cells assessed as reduction in cell viability after 24 hrs by CCK8 assay. The class given is functional, cell-based. The conditions noted are these: NCI-H226, 24 h.
For another experiment, the system named is Escherichia coli. As to the kind of experiment: Antibacterial activity against Escherichia coli assessed as inhibition of bacterial growth after 24 hrs by microdilution method. The format is functional.
In a further experiment the test system is Staphylococcus aureus. As to the kind of experiment: Antibacterial activity against Staphylococcus aureus assessed as inhibition of bacterial growth after 24 hrs by microdilution method. The class given is functional.

Broadly, the inhibition is the drop in the measured response relative to a control, in per cent. As to `CC[C@@H](C)C(=O)[C@@H](C)c1cc(O)c2c(c1O)O[C@]1(C)CC[C@H]3O[C@@H](C(C)(C)O)CC[C@]3(C)[C@H]1C2=O`, the inhibition at 10 µM in the experiment on MDA-MB-231 [1] and in the experiment on NCI-H226 [2] was below 50% each time.
For `CCC(C)C(=O)c1coc2c3c(c(O)cc12)[C@@H](O)[C@@H]1[C@@]2(C)CC[C@H](C(C)(C)O)O[C@@H]2CC[C@@]1(C)O3` (stereo not given in full), the inhibition at 10 µM with MDA-MB-231 [1] and in the experiment on NCI-H226 [2] was below 50% throughout.
The term MIC denotes the smallest concentration in the dilution series that meets the test's criterion for growth inhibition. For `CC[C@H](C)C(=O)[C@@H](C)C1=CC(=O)C2=C(O[C@]3(C)CC[C@H]4O[C@@H](C(C)(C)O)CC[C@]4(C)[C@H]3C2)C1=O` [COCHLIOQUINONE B], the minimal inhibitory concentration (MIC) in the experiment with Clostridium perfringens, in the experiment with Pseudomonas viridiflava and in the experiment with Bacillus subtilis was 26 µM (≈ 12.3 µg/mL) in each case. Besides, the inhibition at 10 µM in the experiment with MDA-MB-231 [1] and in the experiment with NCI-H226 [2] was below 50% in each case.
One may read the IC50 as the concentration that gives 50% inhibition. As to `C/C=C(\C)[C@@H](OC(C)=O)[C@@H](C)C1=CC(=O)C2=C(O[C@]3(C)CC[C@H]4O[C@@H](C(C)(C)O)CC[C@]4(C)C3=C2)C1=O`, the figures for the IC50 with MDA-MB-231 [3] and in the experiment on NCI-H226 [4] were 5.6 µM and above 10 µM, respectively.
As to `CC[C@H](C)C(=O)[C@@H](C)c1cc(O)c2c(c1O)O[C@]1(C)CC[C@H]3O[C@@H](C(C)(C)O)CC[C@]3(C)[C@H]1C2=O` [ISOCOCHLIOQUINONE C], the MIC in the experiment on Clostridium perfringens, in the experiment on Pseudomonas viridiflava and in the experiment with Bacillus subtilis was 26 µM (≈ 12.7 µg/mL) throughout. The inhibition at 10 µM in the experiment on MDA-MB-231 [1] and in the experiment on NCI-H226 [2] was below 50% throughout.
As to `C/C=C(\C)C(=O)[C@@H](C)C1=CC(=O)C2=C(O[C@]3(C)CC[C@H]4O[C@@H](C(C)(C)O)CC[C@]4(C)[C@H]3C2)C1=O` [COCHLIOQUINONE D], the IC50 in the experiment with MDA-MB-231 [3] came out at 7.1 µM; with NCI-H226 [4], 6.9 µM.
With `CC[C@H](C)[C@@H](OC(C)=O)[C@@H](C)C1=CC(=O)C2=C(O[C@]3(C)CC[C@H]4O[C@@H](C(C)(C)O)CC[C@]4(C)[C@H]3[C@@H]2O)C1=O` [COCHLIOQUINONE A], the inhibition at 10 µM with MDA-MB-231 [1] and with NCI-H226 [2] was below 50% each time.
Take `CC[C@@H](C)[C@@H](OC(C)=O)[C@@H](C)c1cc(O)c2c(c1O)O[C@]1(C)CC[C@H]3O[C@@H](C(C)(C)O)CC[C@]3(C)[C@H]1C2=O`: the inhibition at 10 µM with MDA-MB-231 [1] and in the experiment with NCI-H226 [2] was below 50% each time.
Consider `CC[C@H](C)C(=O)[C@@H](C)c1cc(O)c2c(c1O)O[C@]1(C)CC[C@H]3O[C@@H](C(C)(C)O)CC[C@]3(C)[C@H]1[C@@H]2O`, for which the inhibition at 10 µM with MDA-MB-231 [1] and in the experiment on NCI-H226 [2] was below 50% throughout.
For `C/C=C(\C)C(=O)[C@@H](C)c1cc(O)c2c(c1O)O[C@]1(C)CC[C@H]3O[C@@H](C(C)(C)O)CC[C@]3(C)[C@H]1[C@@H]2O`, the values for the concentration for half-maximal inhibition (IC50) in the experiment on MDA-MB-231 [3] and in the experiment with NCI-H226 [4] were 6.7 µM and 5.5 µM, respectively.
As to `CC[C@H](C)C(=O)[C@@H](C)C1=C(OC)C(=O)C2=C(O[C@]3(C)CC[C@H]4O[C@@H](C(C)(C)O)CC[C@]4(C)[C@H]3[C@@H]2O)C1=O`, the values for the IC50 in the experiment with MDA-MB-231 [3] and with NCI-H226 [4] were 9.5 µM and above 10 µM, respectively.
Regarding `C/C=C(\C)C(=O)[C@@H](C)C1=CC(=O)C2=C(O[C@]3(C)CC[C@H]4O[C@@H](C(C)(C)O)CC[C@]4(C)[C@H]3[C@@H]2O)C1=O`, the half-inhibitory concentration (IC50) in the experiment with MDA-MB-231 [3] is 8.5 µM; in the experiment on NCI-H226 [4], above 10 µM.
Regarding `COc1cccc2c1C(=O)c1c(O)c3c(c(O)c1C2=O)C[C@@](O)(C(=O)CO)C[C@@H]3O[C@H]1C[C@H](N)[C@H](O)[C@H](C)O1` [DOXORUBICIN HYDROCHLORIDE], the IC50 in the experiment on MDA-MB-231 [3] and in the experiment on NCI-H226 [4] was 0.3 µM each time.
As for `CC[C@H](C)C(=O)[C@@H](C)C1=CC(=O)C2=C(O[C@]3(C)CC[C@H]4O[C@@H](C(C)(C)O)CC[C@]4(C)[C@H]3[C@@H]2O)C1=O` [COCHLIOQUINONE C], the MIC in the experiment with Clostridium perfringens, with Pseudomonas viridiflava and with Bacillus subtilis was 26 µM (≈ 12.7 µg/mL) each time. Also, the inhibition at 10 µM in the experiment with MDA-MB-231 [1] and in the experiment with NCI-H226 [2] was below 50% each time.
Turning to `CC[C@H](C)C(=O)[C@@H](C)C1=C(OC)C(=O)C2=C(O[C@]3(C)CC[C@H]4O[C@@H](C(C)(C)O)CC[C@]4(C)[C@H]3C2)C1=O`, the inhibition at 10 µM with MDA-MB-231 [1] and with NCI-H226 [2] was below 50% each time.
In the case of `CC[C@H](C)[C@@H](OC(C)=O)[C@@H](C)C1=C(N)C(=O)C2=C(O[C@]3(C)CC[C@H]4O[C@@H](C(C)(C)O)CC[C@]4(C)[C@H]3[C@@H]2O)C1=O`, the inhibition at 10 µM in the experiment with MDA-MB-231 [1] and in the experiment on NCI-H226 [2] was below 50% each time.
As to `CC[C@H](C)[C@@H](OC(C)=O)[C@@H](C)c1cc(O)c2c(c1O)O[C@]1(C)CC[C@H]3O[C@@H](C(C)(C)O)CC[C@]3(C)[C@H]1C2=O` [ISOCOCHLIOQUINONE A], the inhibition at 10 µM with MDA-MB-231 [1] and in the experiment with NCI-H226 [2] was below 50% in each case.
On to `CN(C)[C@@H]1C(O)=C(C(N)=O)C(=O)[C@@]2(O)C(O)=C3C(=O)c4c(O)cccc4[C@@](C)(O)[C@H]3C[C@@H]12` [TETRACYCLINE], for which the MIC with Escherichia coli, in the experiment with Clostridium perfringens, in the experiment with Pseudomonas viridiflava, in the experiment on Bacillus subtilis and in the experiment with Staphylococcus aureus was 3.5 µM (≈ 1.56 µg/mL) each time.
On to `C/C=C(\C)C(=O)[C@@H](C)C1=C(OC)C(=O)C2=C(O[C@]3(C)CC[C@H]4O[C@@H](C(C)(C)O)CC[C@]4(C)[C@H]3[C@@H]2O)C1=O`, for which the half-maximal inhibitory concentration (IC50) is 7.5 µM with MDA-MB-231 [3] and above 10 µM in the experiment with NCI-H226 [4].
